Source: patent US11014964B2, “Peptide amide compound and preparation method and medical use thereof” (Sichuan Haisco Pharmaceutical Co., Ltd., priority 2017, dated 2021)

How the values were obtained:
C57 mice = assay: Mouse hot plate experiment; format: in vivo; conditions: female C57 mice, subcutaneous, detection 15 minutes after administration, hot plate 56° C., cut-off 30 seconds
Method: Test 2: Mouse Hot Plate Experiment
18-22 g of female C57 mice were purchased from Chengdu Dashuo Experimental Animal Co., Ltd. The temperature of the hot plate instrument was set to 56° C., and after reaching 56° C., the temperature was stabilized for 30 minutes before experiment. The animals were placed in a hot plate test in order to observe the reaction of licking the hind feet, which was used as an indicator of pain response. The time from the entry of the animal to the hot plate to the heat-induced licking of the hind feet was recorded. Animals that meet the inclusion criteria (response time to lick the hind foot is less than 25s) are included in the group number. The animals were grouped by baseline threshold, with 10 in each group. Compounds of different concentrations were administered subcutaneously at 10 ml/kg, and a detection was carried out after 15 minutes of administration, with 30 seconds as the cut-off time, and the reaction time was recorded. The results were analyzed statistically, and the % MPE value was calculated according to the formula: % MPE=(Tn−T0)/(30−T0), (Tn is the time for the animal to lick the hind foot after administration, T0 is the time for the animal to lick the foot before administration) The experimental results are shown in Table 2.

human κ-opioid receptor = target: T1, human κ-opioid receptor (Homo sapiens, UniProt P41145); assay: Agonist activity on human κ-opioid receptors (inhibition of forskolin-stimulated cAMP release, TR-FRET); format: cell-based; conditions: OPRK1 cells (DiscoveRx)
T1 construct: host or cells: OPRK1 cells (DiscoveRx)
T1 sequence (P41145 whole entry): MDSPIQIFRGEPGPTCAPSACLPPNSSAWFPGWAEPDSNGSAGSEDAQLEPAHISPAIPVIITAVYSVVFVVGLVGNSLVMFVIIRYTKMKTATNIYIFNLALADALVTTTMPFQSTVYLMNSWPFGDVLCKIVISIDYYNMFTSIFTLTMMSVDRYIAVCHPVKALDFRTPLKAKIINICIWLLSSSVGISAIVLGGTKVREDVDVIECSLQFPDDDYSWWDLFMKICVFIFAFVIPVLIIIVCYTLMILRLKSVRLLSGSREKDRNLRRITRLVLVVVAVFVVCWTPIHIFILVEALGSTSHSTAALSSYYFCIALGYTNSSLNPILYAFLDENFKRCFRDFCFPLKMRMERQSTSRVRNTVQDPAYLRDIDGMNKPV
Source text: Test 1: Agonist Activity on Human κ-Opioid Receptors
Forskolin can stimulate the release of cAMP from a human κ-opioid receptor-overexpressing cell line, OPRK1 cells (DiscoveRx), and κ-opioid receptor agonists can inhibit the cAMP release stimulated by forskolin. By detecting the inhibitory effect of the test compound on the cAMP release stimulated by forskolin, the agonistic activity of the compound on the human κ-opioid receptor can be determined. First, a certain concentration of forskolin and different concentrations of the test compound were incubated with human κ-opioid receptor overexpressing cell lines. A cAMP immunoassay (LANCE®, PerkinElmer) based on time-resolved fluorescence resonance energy transfer (TR-FRET) was used to determine cAMP levels in the stimulated OPRK1 cells. The specific method is as follows:
OPRK1 cells (DiscoveRx) that highly express human κ-opioid receptors were cultured in McCoy's 5A (Gibco 16600-082) medium containing 10% FBS (Gibco 10099-141). On the day of the experiment, the cells in the exponential growth phase were washed and separated with PBS/5 mM EDTA, collected by centrifugation, resuspended with Stimulation Buffer and counted. The concentration of cells was adjusted to 3*10^5 cells/ml. DMSO was used to dissolve Forskolin and the test compound respectively, so that the mother liquor concentration each was 10 mM, and then diluted Forskolin to […] with Stimulation Buffer, and different concentrations of the test compound (the concentrations were 80, 16, 3.2, 0.64, 0.128, 0.0256, 0.00512, 0.001024, 0 μM) was added, 5 μl per well was added to a 384-well plate. 5 μl of cell suspension was added to each well and incubated at room temperature for 30 min. Subsequently, 5 μl of 4×Eu-cAMP tracer working solution (50-fold dilution of Eu-cAMP stock solution with cAMP Detection Buffer) and 5 μl of 4×Ulight-anti-cAMP working solution (150-fold dilution of ULight-anti-cAMP stock solution with cAMP Detection Buffer) were added to each well, and incubated at room temperature for 1 hour. 384-well plates were assayed for cAMP levels using a microplate reader (Perkin Elmer, Envision) TR-FRET method. The obtained data were processed and fitted to EC50 using the origin 7.5 software. The human κ-opioid receptor agonistic activity of the compound of the present invention was measured through the above experiments, and the measured EC50 values are shown in Table 1.
Stimulation Buffer preparation method: 14 mL 1*HBSS (invitrogen, cat. #14025-092), 75 μL 1 M HEPES (Invitrogen, cat. #15630-080), 30 μL 250 mM IBMX was dissolved in DMSO (Sigma, cat. #17018) and mixed with 200 μL 7.5% BSA Stabilizer. pH of the solution was adjusted to 7.4 with 0.1 N NaOH and make up to 15 mL with 1*HBSS.

Rat PK test = format: in vivo; conditions: male SD rats, iv, 1 mg/kg (calculated in free form)
Mouse PK test = format: in vivo; conditions: plasma, male ICR mice, iv, 1 mg/kg (calculated in free form)

Row | Compound | MPE(%) (C57 mice) | EC50 (human κ-opioid receptor) [nM] | Cl (Rat PK test) [ml/kgmin] | AUC(0-t) (Rat PK test; rat, plasma) [ng·h/mL] | half-life (Rat PK test; rat, plasma) [h] | Vd (Rat PK test; rat, plasma, read-out: Vdss) [L/kg] | AUC(0-t) (Mouse PK test) [ng·h/mL] | half-life (Mouse PK test) [h]
1 | CC(C)C[C@@H](NC(=O)[C@@H](Cc1ccccc1)NC(=O)[C@H](N)Cc1ccccc1)C(=O)N[C@H](CCCCN)C(=O)N1CCC2(CC1)CC(N)(C(=O)O)C2 [Compound 2, 2-amino-7-[(2R)-6-amino-2-[[(2R)-2-[[(2R)-2-[[(2R)-2-amino-3-phenyl-propanoyl]amino]-3-phenyl-propanoyl]amino]-4-methyl-pentanoyl]amino]hexanoyl]-7-azaspiro[3.5]nonane-2-carboxylic acid; tri-trifluoroacetic acid] | −17.20 | 0.41 | 5.97 | 2660 | 4.22 | 1.47 | – | –
2 | CC(C)C[C@@H](NC(=O)[C@@H](Cc1ccccc1)NC(=O)[C@H](N)Cc1ccccc1)C(=O)N[C@H](CCCCN)C(=O)N1CC2(C1)CC1(CNC(=O)C1)C2 [Compound 4, (2R)—N-[(1R)-5-amino-1-(9-oxo-2,8-diazadispiro[3.1.4^6.1^4]undecane-2-carbonyl)pentyl]-2-[[(2R)-2-[[(2R)-2-amino-3-phenyl-propanoyl]amino]-3-phenyl-propanoyl]amino]-4-methyl-pentanamide; di-trifluoroacetic acid] | −19.62 | 0.0159 | – | – | – | – | – | –
3 | CC(=O)N1CC2(CCN(C(=O)[C@@H](CCCCN)NC(=O)[C@@H](CC(C)C)NC(=O)[C@@H](Cc3ccccc3)NC(=O)[C@H](N)Cc3ccccc3)CC2)C1 [Compound 8, (2R)—N-[(1R)-1-(2-acetyl-2,7-diazaspiro[3.5]nonane-7-carbonyl)-5-amino-pentyl]-2-[[(2R)-2-[[(2R)-2-amino-3-phenyl-propanoyl]amino]-3-phenyl-propanoyl]amino]-4-methyl-pentanamide; di-trifluoroacetic acid] | −18.61 | 0.0112 | – | – | – | – | 1220 | 5.77
4 | CNC(=O)N1CC2(CCN(C(=O)[C@@H](CCCCN)NC(=O)[C@@H](CC(C)C)NC(=O)[C@@H](Cc3ccccc3)NC(=O)[C@H](N)Cc3ccccc3)CC2)C1 [Compound 15, 7-[(2R)-6-amino-2-[[(2R)-2-[[(2R)-2-[[(2R)-2-amino-3-phenyl-propanoyl]amino]-3-phenyl-propanoyl]amino]-4-methyl-pentanoyl]amino]hexanoyl]-N-methyl-2,7-diazaspiro[3.5]nonane-2-carboxamide; di-trifluoroacetic acid] | −13.29 | 0.0117 | – | – | – | – | – | –
